{
  "source": "patent US20120095052A1",
  "about": "“PAR-1 ANTAGONISM IN FED OR ANTACID-DOSED PATIENTS” (priority 2009, published 2012)",
  "assay": "Clinical study of the effect of food and antacid on pharmacokinetics after a single oral 40 mg tablet in healthy subjects",
  "type": "in vivo, human",
  "conditions": "for Tmax / Cmax / half-life / AUC: single 40 mg oral tablet; for Tmax: median; for Cmax / half-life / AUC: po, 40 mg, mean",
  "description": "and or the bisulfate salt thereof in healthy subjects was studied in a clinical trial. The primary objective of the study was to evaluate the effect of food (standardized high-fat breakfast) and antacid (increased gastric pH) on the pharmacokinetics (PK) of\nand or the bisulfate salt thereof administered orally as a 40 mg tablet. A secondary objective was to evaluate the effect of meal timing relative to fasting on the PK of\nThe study was designed as a randomized, open-label, single-dose, parallel-group, single-center study conducted in healthy young adults in conformance with Good Clinical Practice. Healthy male and female subjects between the ages of 18 and 45 years with a body mass index of 19-32 kg/m^2 were eligible for enrollment. Eligible subjects were randomly assigned to receive a single 40 mg dose of\nbasis on Days 7, 14, 21, 28, 35, and 42 (±1 day) after dosing. The bioanalytical assay was an LC-MS/MS assay, LLOQ=1.00 ng/mL.",
  "key": {"[1]": {"conditions": "40 mg tablet immediately with food vs fasted"}, "[2]": {"conditions": "1 hr after food vs fasted, 40 mg tablet"}, "[3]": {"conditions": "2 hr after food vs fasted, 40 mg tablet"}, "[4]": {"conditions": "Fed (immediately with food) vs fasted, 40 mg tablet"}, "[5]": {"conditions": "antacid co-administration vs alone, fasted subjects"}, "[6]": {"conditions": "fasted subjects, with antacid vs alone, 40 mg tablet"}},
  "note": "Like-named read-outs stand apart in the source and are kept apart here.",
  "data": [
    {"smiles": "CCOC(=O)N[C@@H]1CC[C@@H]2[C@@H](C1)C[C@H]1C(=O)O[C@H](C)[C@H]1[C@H]2/C=C/c1ccc(-c2cccc(F)c2)cn1", "note": "[SCH 530348, ethyl [(R1R,3aR,4aR,6R,8aR,9S,9aS)-9-[(E)-2-[5-(3-fluorophenyl)-2-pyridinyl]ethenyl]-dodecahydro-1-methyl-3-oxonaphtho[2,3-c]furan-6-yl] carbamate]", "values": [
      {"measurement": "increase of peak plasma concentration (Cmax)", "setting": "[1]", "result": 31, "unit": "%"},
      {"measurement": "increase of systemic exposure (AUC[l])", "setting": "[1]", "result": 43, "unit": "%"},
      {"measurement": "Tmax", "setting": "1 hour after food", "result": 0.083, "unit": "days"},
      {"measurement": "Ratio Estimate Fed vs Fasted, AUC(I) (relative bioavailability)", "setting": "[2]", "result": 143},
      {"measurement": "Ratio Estimate Fed vs Fasted, Cmax (relative bioavailability)", "setting": "[2]", "result": 117},
      {"measurement": "Tmax", "setting": "2 hours after food", "result": 0.083, "unit": "days"},
      {"measurement": "Ratio Estimate Fed vs Fasted, AUC(I) (relative bioavailability)", "setting": "[3]", "result": 127},
      {"measurement": "Ratio Estimate Fed vs Fasted, Cmax (relative bioavailability)", "setting": "[3]", "result": 137},
      {"measurement": "Tmax", "setting": "Fasted with antacid", "result": 0.083, "unit": "days"},
      {"measurement": "Ratio Estimate Fed vs Fasted, AUC(I) (relative bioavailability)", "setting": "[4]", "result": 143},
      {"measurement": "Ratio Estimate Fed vs Fasted, Cmax (relative bioavailability)", "setting": "[4]", "result": 131},
      {"measurement": "reduction of peak plasma concentration (Cmax)", "setting": "[5]", "result": 38, "unit": "%"},
      {"measurement": "reduction of systemic exposure (AUC[l])", "setting": "[5]", "result": 15, "unit": "%"},
      {"measurement": "Cmax", "setting": "both sexes, human, plasma, 1 hour after food (high-fat breakfast)", "result": 298, "unit": "ng/mL"},
      {"measurement": "half-life", "setting": "both sexes, human, plasma, 1 hour after food, n = 9", "result": 12, "unit": "days"},
      {"measurement": "AUC", "setting": "both sexes, human, plasma, 1 hour after food, n = 9, read-out: AUC(I)", "result": 26800, "unit": "ng·h/mL"},
      {"measurement": "AUC", "setting": "both sexes, human, plasma, 1 hour after food, read-out: AUC(tf)", "result": 23200, "unit": "ng·h/mL"},
      {"measurement": "Cmax", "setting": "both sexes, human, plasma, 2 hours after food (high-fat breakfast)", "result": 355, "unit": "ng/mL"},
      {"measurement": "half-life", "setting": "both sexes, human, plasma, 2 hours after food, n = 9", "result": 10.1, "unit": "days"},
      {"measurement": "AUC", "setting": "both sexes, human, plasma, 2 hours after food, n = 9, read-out: AUC(I)", "result": 23400, "unit": "ng·h/mL"},
      {"measurement": "AUC", "setting": "both sexes, human, plasma, 2 hours after food, read-out: AUC(tf)", "result": 22400, "unit": "ng·h/mL"},
      {"measurement": "Cmax", "setting": "both sexes, human, plasma, Fasted with antacid (20 mL Gaviscon extra-strength liquid)", "result": 165, "unit": "ng/mL"},
      {"measurement": "half-life", "setting": "both sexes, human, plasma, Fasted with antacid, n = 18", "result": 10.2, "unit": "days"},
      {"measurement": "AUC", "setting": "both sexes, human, plasma, Fasted with antacid, n = 18, read-out: AUC(I)", "result": 15800, "unit": "ng·h/mL"},
      {"measurement": "AUC", "setting": "both sexes, human, plasma, Fasted with antacid, read-out: AUC(tf)", "result": 15000, "unit": "ng·h/mL"},
      {"measurement": "Cmax", "setting": "both sexes, human, plasma, Fasted without antacid (after 10-hour fast), healthy subjects", "result": 262, "unit": "ng/mL"},
      {"measurement": "half-life", "setting": "both sexes, human, plasma, Fasted without antacid, healthy subjects, n = 19", "result": 10, "unit": "days"},
      {"measurement": "AUC", "setting": "both sexes, human, plasma, Fasted without antacid, healthy subjects, n = 19, read-out: AUC(I)", "result": 18400, "unit": "ng·h/mL"},
      {"measurement": "AUC", "setting": "both sexes, human, plasma, Fasted without antacid, healthy subjects, read-out: AUC(tf)", "result": 16800, "unit": "ng·h/mL"},
      {"measurement": "half-life", "setting": "both sexes, human, plasma, Fed (immediately with food), n = 18", "result": 10.9, "unit": "days"},
      {"measurement": "AUC", "setting": "both sexes, human, plasma, Fed (immediately with food), n = 18, read-out: AUC(I)", "result": 26600, "unit": "ng·h/mL"},
      {"measurement": "AUC", "setting": "both sexes, human, plasma, Fed (immediately with food), read-out: AUC(tf)", "result": 22800, "unit": "ng·h/mL"},
      {"measurement": "Cmax", "setting": "both sexes, human, plasma, Fed (within 5 minutes of completing standardized high-fat breakfast)", "result": 347, "unit": "ng/mL"},
      {"measurement": "Tmax", "setting": "both sexes, human, plasma, Fed (immediately with food), read-out: Tmax", "result": 0.125, "unit": "days"},
      {"measurement": "Ratio Estimate with vs without Antacid, AUC(I) (relative bioavailability)", "setting": "[6]", "result": 85},
      {"measurement": "Ratio Estimate with vs without Antacid, Cmax (relative bioavailability)", "setting": "[6]", "result": 62}
    ]}
  ]
}
